{"source": "patent US6797722B2", "about": "(Sigma-Tau Industrie Farmaceutiche Riunite S.p.A., priority 2002, dated 2004)", "origin": "cited, not measured here", "conditions": "oral route"}
{"compound": "CCc1ccccc1-c1n[nH]c(-c2cccc(OC)c2)n1", "note": "[ST1959, 3-(2-ethylphenyl)-5-(3-methoxyphenyl)-1H-1,2,4-triazole]", "values": [{"measurement": "hepatic first-pass effect", "value": "rapid and extensive hepatic first-pass effect leading to the formation of inactive metabolites"}]}
